Measured values: patent US7411067B2, “Crystalline forms of gatifloxacin” (Teva Pharmaceutical Industries Ltd, priority 2002, dated 2008)

What was measured:
[1] = reported in U.S. Pat. No. 5,880,283; cited from earlier work
[2] = Exposure of powder as a thin layer in a controlled humidity cell; resulting crystalline form by x-ray diffraction; assay type: physicochemical; details: 200 mg powder as thin layer
Protocol: As used herein in connection with the present invention, x-ray diffraction refers to x-ray diffraction by the powder diffraction technique. X-ray powder diffraction analysis was performed using a Scintag powder diffractometer with variable goniometer, a Cu source, and a solid state detector. A standard round aluminum sample holder with zero background quartz plate was used. Samples were scanned from 2° to 40° 2θ at 3° per minute in the continuous scan mode. Reflections are reported as peak maxima in the intensity vs. 2θ plots, and are subject to the normal experimental error (uncertainty). Samples were promptly analyzed “as is”.
In another embodiment, the present invention provides a method of making a mixture of novel crystalline form O and prior-art sesqihydrate. The ratios will depend, inter alia, on the conditions of treatment. The mixtures can be made by exposing prior art forms omega or TE, or crystalline form C (characterized by x-ray reflections at 7.2°, 10.8°, 15.8°, 21.8°, and 26.2°±0.2° 2θ) to an atmosphere having a relative humidity of at least about 60% (form c), or at least about 80% (form TE and omega) for an exposing time. The exposing time will generally be between about 24 hours and two weeks.
Preferably, the form omega, TE, or C is exposed as a thin layer of particles or crystals to facilitate diffusion of gasses and vapors. Preferably, the exposing is at ambient temperature.
The present invention can be further illustrated with the following non-limiting examples. In the following examples, the polymorphic or pseudopolymorphic form of gatifloxacin was determined by x-ray diffraction.
Gatifloxacin in form Ω (200 mg powder) was spread as a thin layer in a container having short vertical walls. The container was placed in a controlled humidity cell at 100% RH for 1 week.

[3] = among the crystalline forms, per WO 02/22126 A1; cited from earlier work
[4] = room temperature, among the crystalline forms, per WO 02/22126 A1; cited from earlier work
[5] = reported in U.S. Pat. No. 5,880,283; cited from earlier work; remark: listed apart in the source

Structure (SMILES) | hygroscopicity [1] | crystalline form found after humidity exposure ([2]; 80% RH, two weeks) | crystalline form found after humidity exposure ([2]; 100% RH, two weeks) | also measured
COc1c(N2CCNC(C)C2)c(F)cc2c(=O)c(C(=O)O)cn(C3CC3)c12 (stereo not drawn) [hemihydrate, gatifloxacin] | hygroscopic |  |  | 
COc1c(N2CCNC(C)C2)c(F)cc2c(=O)c(C(=O)O)cn(C3CC3)c12 (stereo not drawn) [form Ω, gatifloxacin] |  |  |  | crystalline form found after humidity exposure ([2]; 80% RH, 1 week): approximately equal weight (1:1) mixture of form O and form Ω; crystalline form found after humidity exposure ([2]; 100% RH, 1 week): approximately equal weight (1:1) mixture of form O and sesquihydrate
COc1c(N2CCNC(C)C2)c(F)cc2c(=O)c(C(=O)O)cn(C3CC3)c12 (stereo not drawn) [form TE, gatifloxacin] |  | approximately equal weight mixture (1:1) of form O and sesquihydrate | approximately equal weight (1:1) mixture of form O and sesquihydrate | 
COc1c(N2CCNC(C)C2)c(F)cc2c(=O)c(C(=O)O)cn(C3CC3)c12 (stereo not drawn) [form C, gatifloxacin] |  | approximately 30:70 mixture by weight of form O and sesquihydrate | mixture of form O and sesquihydrate | crystalline form found after humidity exposure ([2]; 60% RH, two weeks): approximately 80:20 mixture by weight of form C and form O
COc1c(N2CCNC(C)C2)c(F)cc2c(=O)c(C(=O)O)cn(C3CC3)c12 (stereo not drawn) [pentahydrate, gatifloxacin] |  |  |  | thermodynamic stability [3]: most thermodynamically stable form; aqueous solubility [4]: lowest
COc1c(N2CCNC(C)C2)c(F)cc2c(=O)c(C(=O)O)cn(C3CC3)c12 (stereo not drawn) [sesquihydrate, gatifloxacin] | less hygroscopic |  |  | stability in manufacturing [5]: more stable
